In patent US20230391785A1, “NITROGEN-CONTAINING HETEROCYCLIC COMPOUND, METHOD FOR PREPARING SAME AND USE OF SAME” (280 Bio, Inc., priority 2021, published 2023):

How the values were obtained:
Format in all cases: cell-based
[1] = tested on: NCI-H358 cells (KRAS G12C mutation); assay: Proliferation inhibition measured by CTG (CellTiter Glo), NCI-H358; conditions: Homo sapiens, Table 3, CTG, 120 hours incubation, class symbol, read-out: IC50 (H358)
Description: (§1) NCI-H358 is a human non-small cell lung cancer cell line with KRAS G12C mutation; PANC-1 and AsPC-1 are pancreatic cancer cell lines with KRAS G12D mutation; AGS is a gastric cancer cell line with KRAS G12D mutation; A427 is a lung cancer cell line with KRAS G12D mutation; THP-1 is a leukemia cell line with NRAS G12D mutation; Hs 578T is a breast cancer cell line with HRAS G12D mutation; SW480 is a colon cancer cell lines with KRAS G12V mutation; A375 is a wild type malignant melanoma cell line. The proliferation inhibitory effect of the compounds on various mutations was evaluated by determining the proliferation inhibitory activity of the compounds on these cell lines.
(§2) The assay was conducted on either 384-well plates or 96-well plates. The procedures are as follows:
(§3) The cell suspensions were added to 384- or 96-well plates (384-well plate: 40 μL; 96-well plate: […]) except for peripheral wells. The plates were incubated in a carbon dioxide incubator overnight. Prepared compounds (10 concentration gradients by serial 3-fold dilution) were added to the wells. The cell plates were incubated in a carbon dioxide incubator for 120 hours. CellTiter Glo reagent (384 well plate: 25 μL; 96 well plate: 100 μL) was added to the 384- or 96-well plates. The plates were shaken for 10 minutes away from light, and incubated for 10 minutes. The plates were read by EnVision system. Inhibition curves were plotted using XLFit and IC50 values were calculated. “IC50>10 μM” is denoted by “*”, “10 μM≥IC50>1 μM” is denoted by “**”, “1 μM≥IC50>100 nM” is denoted by “***”, and “IC50≤100 nM” is denoted by “****”.

[2] = tested on: AGS gastric cancer cell line (KRAS G12D mutation); assay: Proliferation inhibition measured by CTG (CellTiter Glo), AGS; conditions: Table 3; CTG, 120 hours incubation; class symbol; read-out: IC50 (AGS)
Description: as §1, §2, §3

[3] = tested on: A375 wild type malignant melanoma cell line; assay: Proliferation inhibition measured by CTG (CellTiter Glo), A375; conditions: Homo sapiens, A-375; Table 3; CTG, 120 hours incubation; class symbol; read-out: IC50 (A375)
Description: as §1, §2, §3

[4] = tested on: SW480 colon cancer cell line (KRAS G12V mutation); assay: Proliferation inhibition measured by CTG (CellTiter Glo), SW480; conditions: Homo sapiens, Table 3, 120 hours incubation, class symbol, read-out: IC50 (SW480)
Description: as §1, §2, §3

| IC50 [1] [nM] | IC50 [2] [nM] | IC50 [3] [nM] | IC50 [4] [nM] | Structure (SMILES) |
| --- | --- | --- | --- | --- |
| 1000 to 10000 | 100 to 1000 | 1000 to 10000 | 100 to 1000 | C[C@@H]1Cn2cnc(F)c2CN1c1nc(OC[C@@H]2CCCN2C)nc2c1CCN(c1cc(NC(=O)OC(C)(C)C)cc3cccc(Cl)c13)C2 [Compound 109] |
| ≤ 100 | ≤ 100 | ≤ 100 | ≤ 100 | C[C@@H]1Cn2cnc(F)c2CN1c1nc(OC[C@@H]2CCCN2C)nc2c1CCN(c1cc(N)cc3cccc(Cl)c13)C2 [Compound 110] |
| 1000 to 10000 | 1000 to 10000 | 1000 to 10000 | 100 to 1000 | CC(=O)Nc1cc(N2CCc3c(nc(OC[C@@H]4CCCN4C)nc3N3Cc4c(F)ncn4C[C@H]3C)C2)c2c(Cl)cccc2c1 [Compound 111] |
| 1000 to 10000 | 100 to 1000 | 1000 to 10000 | 100 to 1000 | C[C@@H]1Cn2cnc(F)c2CN1c1nc(OC[C@@H]2CCCN2C)nc2c1CCN(c1cc(NS(C)(=O)=O)cc3cccc(Cl)c13)C2 [Compound 112] |
| ≤ 100 | ≤ 100 | ≤ 100 | ≤ 100 | C[C@@H]1Cn2cnc(F)c2CN1c1nc(OC[C@@H]2CCCCN2C)nc2c1CCN(c1cccc3cccc(F)c13)C2 [Compound 113] |
| ≤ 100 | ≤ 100 | ≤ 100 | ≤ 100 | C[C@@H]1Cn2cnc(F)c2CN1c1nc(OC[C@@H]2CCCCN2C)nc2c1CCN(c1cc(F)cc3cccc(Cl)c13)C2 [Compound 115] |
| ≤ 100 | ≤ 100 | ≤ 100 | ≤ 100 | C[C@@H]1Cn2cnc(F)c2CN1c1nc(OC[C@@H]2CCCN2C)nc2c1CCN(c1cc(F)cc3cccc(Cl)c13)C2 [Compound 117] |
| 100 to 1000 | ≤ 100 | 100 to 1000 | ≤ 100 | CC1Cc2[nH]ncc2CN1c1nc(OC[C@@H]2CCCN2C)nc2c1CCN(c1cccc3cccc(Cl)c13)C2 (stereo partly drawn) [Compound 118] |

More lines, now with the values behind:

| Structure (SMILES) | IC50 [1] [nM] | IC50 [2] [nM] | IC50 [3] [nM] | IC50 [4] [nM] |
| --- | --- | --- | --- | --- |
| Cc1cccc(N)c1C(=O)Oc1cc(N2CCc3c(nc(OC[C@@H]4CCCN4C)nc3N3Cc4c(F)ncn4C[C@H]3C)C2)c2c(Cl)cccc2c1 [Compound 102] | ≤ 100 | ≤ 100 | ≤ 100 | ≤ 100 |
| CCc1ccc(NC(=O)Oc2cc(N3CCc4c(nc(OC[C@@H]5CCCN5C)nc4N4Cc5c(F)ncn5C[C@H]4C)C3)c3c(Cl)cccc3c2)cc1 [Compound 103] | ≤ 100 | ≤ 100 | ≤ 100 | ≤ 100 |
| C[C@@H]1Cn2cnc(F)c2CN1c1nc(OC[C@@H]2CCCN2C)nc2c1CO[C@H](c1cccc3cccc(Cl)c13)C2 [Compound 104] | 100 to 1000 | 100 to 1000 | 100 to 1000 | 100 to 1000 |
| C[C@@H]1Cn2cnc(F)c2CN1c1nc(OC[C@@H]2CCCN2C)nc2c1CCN(c1cc(O)c(Cl)c3cccc(Cl)c13)C2 [Compound 105] | ≤ 100 | ≤ 100 | ≤ 100 | ≤ 100 |
| C[C@@H]1Cn2cnc(F)c2CN1c1nc(OC[C@@H]2CCCN2C)nc2c1CCN(c1cccc3cccc(F)c13)C2 [Compound 106] | ≤ 100 | ≤ 100 | ≤ 100 | ≤ 100 |
| CC[C@@H]1Cn2cncc2CN1c1nc(OC[C@@H]2CCCN2C)nc2c1CCN(c1cccc3cccc(Cl)c13)C2 [Compound 107] | ≤ 100 | ≤ 100 | ≤ 100 | ≤ 100 |
| C#Cc1c(F)ccc2cc(O)cc(N3CCc4c(nc(OC[C@@H]5CCCN5C)nc4N4Cc5c(F)ncn5C[C@H]4C)C3)c12 [Compound 108] | 100 to 1000 | ≤ 100 | 100 to 1000 | ≤ 100 |
